The compounds below were run against T1, EGFR L858R-T790M (Homo sapiens, UniProt P00533, L858R/T790M) (assay: EGFR degradation, Total EGFR (L858R-specific) HTRF, NCI-H1975). Details: Table 9A; NCI-H1975 cells, 6 hours, Total EGFR HTRF; read-out: H1975 EGFR DC50.
T1 construct: NCI-H1975 (harboring EGFR heterozygous L858R-T790M mutations); host or cells: NCI-H1975
Format: cell-based
From the text: NCI-H1975 (harboring EGFR heterozygous L858R-T790M mutations) and NCI-H3255 (harboring EGFR heterozygous L858R mutation) were purchased from ATCC and NCI, respectively. NCI-H1975+CS (harboring EGFR heterozygous L858R-T790M-C797S mutations) was generated using CRISPR technology to introduce the additional C797S mutation by Horizon Discovery. A431 (harboring EGFR wildtype) was purchased from ATCC. RPMI 1640 no-phenol red medium and fetal bovine serum (FBS) were purchased from Gibco (Grand Island, NY, USA). Cell culture flasks and 384-well microplates were acquired from VWR (Radnor, PA, USA). Phosphorylated (pY1068) EGFR and Total EGFR (using L858R-specific detection antibody and pan-EGFR antibody for EGFR mutant cell lines and EGFR wild-type cell lines, respectively) HTRF assay kits were purchased from Cisbio (Bedford, MA, USA).
Degradation of EGFR protein containing L858R mutation or wild-type was determined based on quantification of FRET signal using a Total EGFR (L858R-specific or pan-EGFR detecting) HTRF assay kit. Phospho-EGFR (pEGFR) inhibition was determined based on quantification of FRET signal using a pY1068 EGFR HTRF assay kit. In separate assay plates, test compounds were added to the 384-well plate from a top concentration of 10 μM with 11 points, half log titration in duplicates. For each assay, 12.5 uL of cells suspended in assay media (RPMI 1640 no-phenol red medium+10% FBS) at cell densities indicated for each cell line in Table 8 below were dispensed using a multi-channel pipette to 384-well low volume white HTRF microplates containing a duplicate concentration range of test compounds and DMSO controls. The plates were kept at 37° C. with 5% CO2 for 6 hours and then incubated with either phospho EGFR or Total EGFR HTRF detection antibodies according to the cell line and EGFR mutant being assayed. Cells treated in the absence of the test compound were the negative control. Positive control was set by wells containing all reagents but no cells. FRET signal was acquired on EnVision™ Multilabel Reader (PerkinElmer, Santa Clara, CA, USA). Compound concentration that achieves 50% degradation and inhibition was reported as DC50 and IC50, respectively.

T1 sequence (P00533 25-1210 T790M/L858R): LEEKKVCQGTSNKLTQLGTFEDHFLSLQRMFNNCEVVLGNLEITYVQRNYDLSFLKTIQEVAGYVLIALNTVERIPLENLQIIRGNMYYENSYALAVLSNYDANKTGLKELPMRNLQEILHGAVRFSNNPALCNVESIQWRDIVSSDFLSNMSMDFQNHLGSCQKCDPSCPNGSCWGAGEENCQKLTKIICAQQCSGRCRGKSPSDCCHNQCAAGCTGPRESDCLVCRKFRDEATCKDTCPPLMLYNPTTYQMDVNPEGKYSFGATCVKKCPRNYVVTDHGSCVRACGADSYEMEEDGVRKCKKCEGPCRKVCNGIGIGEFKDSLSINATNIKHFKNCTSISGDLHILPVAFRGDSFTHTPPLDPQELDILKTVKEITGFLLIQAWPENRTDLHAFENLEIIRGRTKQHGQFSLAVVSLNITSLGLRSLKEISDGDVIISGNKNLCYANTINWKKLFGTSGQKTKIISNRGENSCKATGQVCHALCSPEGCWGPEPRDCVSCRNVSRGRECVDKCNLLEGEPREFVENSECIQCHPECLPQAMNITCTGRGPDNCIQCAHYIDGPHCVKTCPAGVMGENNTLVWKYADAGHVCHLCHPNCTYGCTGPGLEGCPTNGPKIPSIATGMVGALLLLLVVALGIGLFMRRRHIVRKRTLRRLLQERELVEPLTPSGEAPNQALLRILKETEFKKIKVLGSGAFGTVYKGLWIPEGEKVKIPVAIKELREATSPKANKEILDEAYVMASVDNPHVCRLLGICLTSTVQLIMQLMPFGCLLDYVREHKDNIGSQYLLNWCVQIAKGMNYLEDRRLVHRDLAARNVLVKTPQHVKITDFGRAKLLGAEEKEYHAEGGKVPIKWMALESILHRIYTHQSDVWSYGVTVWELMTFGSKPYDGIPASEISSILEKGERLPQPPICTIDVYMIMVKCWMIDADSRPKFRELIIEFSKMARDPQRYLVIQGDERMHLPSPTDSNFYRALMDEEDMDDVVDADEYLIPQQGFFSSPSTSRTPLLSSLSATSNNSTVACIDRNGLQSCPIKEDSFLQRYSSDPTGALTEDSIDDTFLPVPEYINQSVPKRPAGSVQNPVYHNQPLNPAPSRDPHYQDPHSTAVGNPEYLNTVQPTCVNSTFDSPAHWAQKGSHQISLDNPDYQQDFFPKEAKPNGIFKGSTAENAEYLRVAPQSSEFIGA

| DC50 [nM] | SMILES |
| --- | --- |
| 50 to 150 | O=C1CC[C@H](Nc2ccc(C3CCN(CC(=O)N4CCC(Oc5ccc(-c6cc(F)c7c(c6)C(=O)N(C(C(=O)Nc6nccs6)c6ncn8c6CCC8)C7)cc5)CC4)CC3)c(F)c2)C(=O)N1 (stereo partly drawn) [Compound 39, 2-(6,7-dihydro-5H-pyrrolo[1,2-c]imidazol-1-yl)-2-(6-(4-((1-(2-(4-(4-(((S)-2,6-dioxopiperidin-3-yl)amino)-2-fluorophenyl)piperidin-1-yl)acetyl)piperidin-4-yl)oxy)phenyl)-4-fluoro-1-oxoisoindolin-2-yl)-N-(thiazol-2-yl)acetamide] |
| < 50 | O=C1CCC(Nc2ccc(C3CCN(CC(=O)N4CCC(Oc5ccc(-c6cc(F)c7c(c6)C(=O)N(C(C(=O)Nc6nccs6)c6ncn8c6CCC8)C7)cc5)CC4)CC3)nc2)C(=O)N1 (stereo not shown) [Compound 36, 2-(6,7-dihydro-5H-pyrrolo[1,2-c]imidazol-1-yl)-2-(6-(4-((1-(2-(4-(5-((2,6-dioxopiperidin-3-yl)amino)pyridin-2-yl)piperidin-1-yl)acetyl)piperidin-4-yl)oxy)phenyl)-4-fluoro-1-oxoisoindolin-2-yl)-N-(thiazol-2-yl)acetamide] |
| 50 to 150 | O=C1CCC(Nc2cccc(C3CCN(CC(=O)N4CCN(c5ccc(-c6cc(F)c7c(c6)C(=O)N(C(C(=O)Nc6nccs6)c6ncn8c6CCC8)C7)cc5)CC4)CC3)c2)C(=O)N1 (stereo not shown) [Compound 16, 2-(6,7-dihydro-5H-pyrrolo[1,2-c]imidazol-1-yl)-2-(6-(4-(4-(2-(4-(3-((2,6-dioxopiperidin-3-yl)amino)phenyl)piperidin-1-yl)acetyl)piperazin-1-yl)phenyl)-4-fluoro-1-oxoisoindolin-2-yl)-N-(thiazol-2-yl)acetamide] |

Same assay, conditions: Table 9B; NCI-H1975 cells, 6 hours, Total EGFR HTRF; read-out: H1975 EGFR DC50

| DC50 [nM] | SMILES |
| --- | --- |
| < 50 | O=C1CCC(Nc2ccc(N3CCC(O)(CC(=O)N4CC5(C4)CN(c4ccc(-c6cc(F)c7c(c6)C(=O)N(C(C(=O)Nc6nccs6)c6ncn8c6CCC8)C7)cc4)C5)CC3)c(Cl)c2)C(=O)N1 (stereo not shown) [Compound 117, 2-[6-[4-[2-[2-[1-[2-chloro-4-[(2,6-dioxo-3-piperidyl)amino]phenyl]-4-hydroxy-4-piperidyl]acetyl]-2,6-diazaspiro[3.3]heptan-6-yl]phenyl]-4-fluoro-1-oxo-isoindolin-2-yl]-2-(6,7-dihydro-5H-pyrrolo[1,2-c]imidazol-1-yl)-N-thiazol-2-yl-acetamide] |
| < 50 | Cn1nc(N2CCC(=O)NC2=O)c2ccc(C3CCN(CC(=O)N4CCC(n5cc(-c6cc(F)c7c(c6)C(=O)N(C(C(=O)Nc6nccs6)c6ncn8c6CCC8)C7)cn5)CC4)CC3(F)F)cc21 (stereo not shown) [Compound 105, 2-(6,7-dihydro-5H-pyrrolo[1,2-c]imidazol-1-yl)-2-(6-(1-(1-(2-(4-(3-(2,4-dioxotetrahydropyrimidin-1(2H)-yl)-1-methyl-1H-indazol-6-yl)-3,3-difluoropiperidin-1-yl)acetyl)piperidin-4-yl)-1H-pyrazol-4-yl)-4-fluoro-1-oxoisoindolin-2-yl)-N-(thiazol-2-yl)acetamide] |
| < 50 | O=C1CCC(Nc2ccc(N3CCC(O)(CC(=O)N4CCC5(CC4)CN(c4ccc(-c6cc(F)c7c(c6)C(=O)N(C(C(=O)Nc6nccs6)c6ncn8c6CCC8)C7)cc4)C5)CC3)c(Cl)c2)C(=O)N1 (single isomer, unassigned; isomer 1) [Compound 138, 2-[6-[4-[7-[2-[1-[2-chloro-4-[[2,6-dioxo-3-piperidyl]amino]phenyl]-4-hydroxy-4-piperidyl]acetyl]-2,7-diazaspiro[3.5]nonan-2-yl]phenyl]-4-fluoro-1-oxo-isoindolin-2-yl]-2-(6,7-dihydro-5H-pyrrolo[1,2-c]imidazol-1-yl)-N-thiazol-2-yl-acetamide, isomer 1] |
| 50 to 150 | O=C1CCC(Nc2ccc(N3CCCC(O)(CC(=O)N4CC5(C4)CN(c4ccc(-c6cc(F)c7c(c6)C(=O)N(C(C(=O)Nc6nccs6)c6ncn8c6CCC8)C7)cc4)C5)CC3)c(F)c2)C(=O)N1 (single isomer, unassigned; isomer b2) [Compound 167, 2-(6,7-dihydro-5H-pyrrolo[1,2-c]imidazol-1-yl)-2-[6-[4-[2-[2-[1-[4-[[2,6-dioxo-3-piperidyl]amino]-2-fluoro-phenyl]-4-hydroxy-azepan-4-yl]acetyl]-2,6-diazaspiro[3.3]heptan-6-yl]phenyl]-4-fluoro-1-oxo-isoindolin-2-yl]-N-thiazol-2-yl-acetamide, isomer B2] |
| < 50 | O=C1CC[C@H](Nc2ccc(C3CCN(CC(=O)N4CC5(C4)CN(c4ccc(-c6cc(F)c7c(c6)C(=O)N(C(C(=O)Nc6nccs6)c6ncn8c6CCC8)C7)cn4)C5)CC3)c(F)c2)C(=O)N1 (stereo partly drawn) [Compound 95, 2-(6,7-dihydro-5H-pyrrolo[1,2-c]imidazol-1-yl)-2-(6-(6-(6-(2-(4-(4-(((S)-2,6-dioxopiperidin-3-yl)amino)-2-fluorophenyl)piperidin-1-yl)acetyl)-2,6-diazaspiro[3.3]heptan-2-yl)pyridin-3-yl)-4-fluoro-1-oxoisoindolin-2-yl)-N-(thiazol-2-yl)acetamide] |
| 50 to 150 | O=C1CCC(Nc2cc(F)c(N3CCC(O)(CC(=O)N4CCC5(CC4)CN(c4ccc(-c6cc(F)c7c(c6)C(=O)N(C(C(=O)Nc6nccs6)c6ncn8c6CCC8)C7)cc4)C5)CC3)c(F)c2)C(=O)N1 (single isomer, unassigned; isomer 1) [Compound 137, 2-(6,7-dihydro-5H-pyrrolo[1,2-c]imidazol-1-yl)-2-[6-[4-[7-[2-[1-[4-[2,6-dioxo-3-piperidyl]amino]-2,6-difluoro-phenyl]-4-hydroxy-4-piperidyl]acetyl]-2,7-diazaspiro[3.5]nonan-2-yl]phenyl]-4-fluoro-1-oxo-isoindolin-2-yl]-N-thiazol-2-yl-acetamide, isomer 1] |
| < 50 | Cn1nc(N2CCC(=O)NC2=O)c2ccc(C3CCN(CC(=O)N4CCC5(C4)CN(c4ccc(-c6cc(F)c7c(c6)C(=O)N(C(C(=O)Nc6nccs6)c6ncn8c6CCC8)C7)cc4)C5)CC3(F)F)cc21 (stereo not shown) [Compound 113, 2-(6,7-dihydro-5H-pyrrolo[1,2-c]imidazol-1-yl)-2-(6-(4-(6-(2-(4-(3-(2,4-dioxotetrahydropyrimidin-1(2H)-yl)-1-methyl-1H-indazol-6-yl)-3,3-difluoropiperidin-1-yl)acetyl)-2,6-diazaspiro[3.4]octan-2-yl)phenyl)-4-fluoro-1-oxoisoindolin-2-yl)-N-(thiazol-2-yl)acetamide] |
| 50 to 150 | O=C1CCC(Nc2cc(F)c(N3CCC(O)(CC(=O)N4CC5(C4)CN(c4ccc(-c6cc(F)c7c(c6)C(=O)N(C(C(=O)Nc6nccs6)c6ncn8c6CCC8)C7)cc4)C5)CC3)c(Cl)c2)C(=O)N1 (single isomer, unassigned; isomer 1) [Compound 145, 2-[6-[4-[2-[2-[1-[2-chloro-4-[[2,6-dioxo-3-piperidyl]amino]-6-fluoro-phenyl]-4-hydroxy-4-piperidyl]acetyl]-2,6-diazaspiro[3.3]heptan-6-yl]phenyl]-4-fluoro-1-oxo-isoindolin-2-yl]-2-(6,7-dihydro-5H-pyrrolo[1,2-c]imidazol-1-yl)-N-thiazol-2-yl-acetamide, isomer 1] |
| < 50 | Cn1nc(N2CCC(=O)NC2=O)c2ccc(C3CCN(C(=O)CC4CC5(C4)CN(c4ccc(-c6cc(F)c7c(c6)C(=O)N(C(C(=O)Nc6nccs6)c6ncn8c6CCC8)C7)cc4)C5)CC3(F)F)cc21 (stereo not shown) [Compound 102, 2-(6,7-dihydro-5H-pyrrolo[1,2-c]imidazol-1-yl)-2-(6-(4-(6-(2-(4-(3-(2,4-dioxotetrahydropyrimidin-1(2H)-yl)-1-methyl-1H-indazol-6-yl)-3,3-difluoropiperidin-1-yl)-2-oxoethyl)-2-azaspiro[3.3]heptan-2-yl)phenyl)-4-fluoro-1-oxoisoindolin-2-yl)-N-(thiazol-2-yl)acetamide] |
| < 50 | O=C1CCN(c2ccc(N3CCC(O)(CC(=O)N4CC5(CCN(c6ccc(-c7cc(F)c8c(c7)C(=O)N(C(C(=O)Nc7nccs7)c7ncn9c7CCC9)C8)cc6)CC5)C4)CC3)c(F)c2)C(=O)N1 (stereo not shown) [Compound 163, 2-(6,7-dihydro-5H-pyrrolo[1,2-c]imidazol-1-yl)-2-[6-[4-[2-[2-[1-[4-(2,4-dioxohexahydropyrimidin-1-yl)-2-fluoro-phenyl]-4-hydroxy-4-piperidyl]acetyl]-2,7-diazaspiro[3.5]nonan-7-yl]phenyl]-4-fluoro-1-oxo-isoindolin-2-yl]-N-thiazol-2-yl-acetamide] |
